Experimental data: article PMC7144209, “Design, synthesis and anticancer activity of naphthoquinone derivatives” (Journal of Enzyme Inhibition and Medicinal Chemistry, 2020)

Experiments:
SMMC-7721 = assay: MTT cell viability assay, SMMC-7721 cells; type: cell-based; settings: Homo sapiens, 48 h, n = 3
Procedure: (§1) MGC-803, SGC-7901, U87 and SMMC-7721 cell lines were cultured in DMEM supplemented with 10% foetal bovine serum, 100 IU/mL penicillin/streptomycin. The cells were incubated in an atmosphere containing 5% CO2 at 37 °C.
(§2) MGC-803, SGC-7901, U87 and SMMC-7721 cells were plated in 96-well plate at 7000 per well. Cells were incubated with the different concentrations of the compounds for 48 h. Subsequently, MTT (0.5 mg/mL) were used to test the cell viability, then 150 μL DMSO was added to each well after cells were incubated for 4 h and the absorbance was measured at 492 nm.

L02 = assay: MTT cell viability assay, L02 cells; type: cell-based; settings: Homo sapiens, n = 3
MGC-803 = assay: MTT cell viability assay, MGC-803 cells; type: cell-based; settings: Homo sapiens, MGC-803, 48 h, n = 3
Procedure: as §1, §2

[1] = tested on: SGC-7901, MGC-803, SMMC-7721, U-87 cell lines; assay: MTT anticancer activity, summary in words over the cell line panel; type: cell-based; settings: MTT assay
Procedure: as §2
Compounds 1–24 were detected for anticancer activities against SGC-7901, MGC-803, SMMC-7721, U-87 cell lines in vitro by the MTT assay, and ADM was used as the positive control. From Table 1, when the phenolic hydroxyls of naphthoquinone moiety were converted to ether, the activity was missing. […] So colony formation assay of this compound (Figure 4) was used to investigate the effect of it on cell proliferation in SGC-7901 cells. The experiment examined the ability for producing colonies after the cells were treated with the cell death agents[35]^,[36].

SGC-7901 = assay: MTT cell viability assay, SGC-7901 cells; type: cell-based, human; settings: Homo sapiens, SGC-7901, 48 h, n = 3
Procedure: as §1, §2

U87 = assay: MTT cell viability assay, U87 cells; type: cell-based; settings: Homo sapiens, U-87 MG, 48 h, n = 3
Procedure: as §1, §2

Compound | IC50 (SMMC-7721) [µM] | IC50 (L02) [µM] | IC50 (MGC-803) [µM] | anticancer activity (in words) [1] | IC50 (SGC-7901) [µM] | IC50 (U87) [µM] | melting point [°C]
CC(C)=CCC(OC(=O)CCC(=O)NCCc1ccc(F)cc1)C1=CC(=O)c2c(O)ccc(O)c2C1=O (stereo not drawn) [Compound 20, 1-(5,8-dihydroxy-1,4-dioxo-1,4-dihydronaphthalen-2-yl)-4-methylpent-3-en-1-yl 4-((4-fluorophenethyl)amino)-4-oxobutanoate] | 18.6 ± 3.6 | 12.3 ± 0.5 | 3.5 ± 1.4 | good activity | 13.3 ± 0.6 | 5.2 ± 1.4 | –
CC(C)=CCC(OC(=O)CCC(=O)NCCc1cccc(Cl)c1)C1=CC(=O)c2c(O)ccc(O)c2C1=O (stereo not drawn) [Compound 17, 1-(5,8-dihydroxy-1,4-dioxo-1,4-dihydronaphthalen-2-yl)-4-methylpent-3-en-1-yl-4-((3-chlorophenethyl)amino)-4-oxobutanoate] | 15.9 ± 0.2 | 11.4 ± 1.8 | 6.7 ± 2.4 | good activity | 20.8 ± 0.5 | 3.8 ± 1.7 | –
CC(C)=CCC(OC(=O)CCC(=O)N1CCCc2ccccc21)C1=CC(=O)c2c(O)ccc(O)c2C1=O (stereo not drawn) [Compound 9, 1-(5,8-dihydroxy-1,4-dioxo-1,4-dihydronaphthalen-2-yl)-4-methylpent-3-en-1-yl-4-(3,4-dihydroquinolin-1(2H)-yl)-4-oxobutanoate] | 12.3 ± 0.1 | 12.1 ± 0.8 | 3.1 ± 0.1 | good activity | 8.6 ± 2.5 | 4.45 ± 0.66 | –
CC(C)=CCC(OC(=O)CCC(=O)Nc1ccc(OC(F)(F)F)cc1)C1=CC(=O)c2c(O)ccc(O)c2C1=O (stereo not drawn) [Compound 13, 1-(5,8-dihydroxy-1,4-dioxo-1,4-dihydronaphthalen-2-yl)-4-methylpent-3-en-1-yl-4-oxo-4-((4-(trifluoromethoxy)phenyl)amino)butanoate] | 16.9 ± 2.2 | 15.8 ± 1.1 | 10.2 ± 2.9 | good activity | 7.8 ± 3.7 | 3.46 ± 0.31 | –
CC(C)=CCC(OC(=O)CCC(=O)Nc1ccc(F)c(C(F)(F)F)c1)C1=CC(=O)c2c(O)ccc(O)c2C1=O (stereo not drawn) [Compound 11, 1-(5,8-dihydroxy-1,4-dioxo-1,4-dihydronaphthalen-2-yl)-4-methylpent-3-en-1-yl-4-((4-fluoro-3-(trifluoromethyl)phenyl)amino)-4-oxobutanoate] | 9.5 ± 0.8 | 4 ± 0.1 | 8.4 ± 3.1 | good activity | 2.25 ± 1.5 | 3.75 ± 0.77 | –
CC(C)=CCC(OC(=O)CCC(=O)N1CCCCC1)C1=CC(=O)c2c(O)ccc(O)c2C1=O (stereo not drawn) [Compound 7, 1-(5,8-dihydroxy-1,4-dioxo-1,4-dihydronaphthalen-2-yl)-4-methylpent-3-en-1-yl-4-oxo-4-(piperidin-1-yl)butanoate] | 14.4 ± 1.5 | 36.8 ± 4.1 | 9.7 ± 2.3 | – | 33.6 ± 2.1 | 9.68 ± 2.3 | 120
COc1ccc(NC(=O)CCC(=O)OC(CC=C(C)C)C2=CC(=O)c3c(O)ccc(O)c3C2=O)cc1 (stereo not drawn) [Compound 10, 1-(5,8-dihydroxy-1,4-dioxo-1,4-dihydronaphthalen-2-yl)-4-methylpent-3-en-1-yl-4-((4-methoxyphenyl)amino)-4-oxobutanoate] | 12.4 ± 2.6 | 11.9 ± 0.6 | 7.9 ± 1.8 | – | 11.1 ± 1.2 | 12.3 ± 2.8 | 115
